Measured values: patent publication US20260071179A1, “PRODUCTION METHOD OF NERVE CELLS DAMAGED BY OXIDATIVE STRESS AND APPLICATIONS THEREOF” (FUJIFILM Corporation, priority 2023, published 2026)

These molecules were tested on iCell motor neurons (assay: Evaluation of necroptosis inhibitor for oxidative stress-induced neuronal damage (neurite length, IncuCyte S3 Neurotrack)). Conditions: iCell motor neurons in −AO culture medium (Stress(+)), 4.7×10^4 cells/cm^2, compound 0.01 to 20 μM, FIG. 14.
Type: cell-based, human
Protocol: (§1) A solution obtained by diluting iMatrix-511 silk (Matrixome, 892021) 16.7 times with PBS was added to a 96-well plate (Corning, 356461) coated with PDL at 70 μL/well, and incubated at 37° C. for 3 hours to 72 hours.
(§2) As a culture medium containing an antioxidant, a culture medium (Stress(−)) in which DMSO was added to a +AO culture medium to a final concentration of 0.1% by volume (v/v) was used, as a culture medium not containing an antioxidant, a culture medium (Stress(+)) in which DMSO was added to a −AO culture medium to a final concentration of 0.1% by volume (v/v), and as the culture medium of the drug evaluation group, a culture medium in which a DMSO-dissolved compound was added to the −AO culture medium to a concentration of 0.1% by volume (v/v) (0.01 to 20 μM) was used.
Frozen cells (iCell motor neurons, FCDI, C1048) were thawed in a warm bath at 37° C. After melting, the cells were added to a culture medium and centrifuged at 600×g at room temperature for 5 minutes. After centrifugation, the supernatant was removed, the cells were suspended in 1 mL of the culture medium, and the number of cells was counted. Thereafter, the cells were diluted with a culture medium, seeded at 200 μL/well (4.7×10^4 cells/cm^2), and cultured under the conditions of 37° C. and 5% CO2. […]
(§3) The neurite length was quantified using the Neurotrack software (Sartorius, 9600-0010) of IncuCyte S3.

Which “reduction in the sum of the neurite lengths” value does the source give for `CN1C(=O)C(Cc2c[nH]c3ccccc23)NC1=S` (stereo not shown) [Necrostatin-1] here?
The value was “suppressed in a concentration-dependent manner”.

Each molecule was assayed on nerve cells (considered to be cortical excitatory neurons) produced by forcibly expressing the Ngn2 genes from the iPS cells (assay: Evaluation of compound for oxidative stress-induced neuronal damage (neurite length, IncuCyte S3 Neurotrack)). Conditions: same method as in Test Example 7, −AO culture medium (Stress(+)), FIG. 19.
Type: cell-based, human
Protocol: as §1
as §2, with “(0.004” for “(0.01”
The nerve cells (considered to be cortical excitatory neurons) produced by forcibly expressing the Ngn2 genes from the iPS cells was thawed in a warm bath at 37° C. […] After centrifugation, the supernatant was removed, the cells were suspended in 1 mL of the culture medium, and the number of cells was counted. […]
as §3
The effect of edaravone, which was used as a therapeutic drug for ALS, on oxidative stress-induced neuronal damage was evaluated by the same method as in Test Example 7. […]

How did the “reduction in the sum of the neurite lengths” value turn out when `CC1=NN(c2ccccc2)C(=O)C1` [edaravone] was run?
The value was “suppressed in a concentration-dependent manner”.

Each molecule was assayed on iCell motor neurons (assay: Compound screening using oxidative stress-induced neuronal damage evaluation system (AUC of neurite length over 14 days)). Conditions: iCell motor neurons in −AO culture medium (Stress(+)), 4.7×10^4 cells/cm^2, StemSelect Library compounds, FIG. 18.
Type: cell-based, human
Protocol: as §1
as §2, with “As the compound library, StemSelect Library compounds (Merck, 569774) were used. As” for “As”, “(v/v)” for “(v/v) (0.01 to 20 μM)”
Frozen cells (iCell motor neurons, FCDI, C1048) were thawed in a warm bath at 37° C. After melting, the cells were added to a culture medium and centrifuged at 600×g at room temperature for 5 minutes. After centrifugation, the supernatant was removed, the cells were suspended in 1 mL of the culture medium, and the number of cells was counted. Thereafter, the cells were diluted with a culture medium, seeded at 200 μL/well (4.7×10^4 cells/cm^2), and cultured under the conditions of 37° C. and 5% CO2. After culturing, images were acquired by imaging with IncuCyte S3 (Sartorius, Incucyte S3) every 6 hours.
The neurite length was quantified using the Neurotrack software (Sartorius, 9600-0010) of IncuCyte S3. The area under the curve (AUC) of the curve of the neurite length over time for 14 days was calculated, and the effects of the drug were compared. […] The AUC of the nerve cells (Stress(+) group) (▴) cultured in the culture medium not containing an antioxidant was reduced as compared with the nerve cells (Stress(−) group) (▪) cultured in the culture medium containing an antioxidant.

With `c1ccc2c(Oc3nc(Nc4ccc(N5CCOCC5)cc4)c4ncn(C5CCCCC5)c4n3)cccc2c1` [Purmorphamine] as the molecule, how does the “reduction in AUC of the curve of the neurite length over time for 14 days” value (shortened to “reduction in AUC”) read?
The value was “strongly suppressed”.

How did the “reduction in AUC” value turn out when `CC[C@H](C)C(=O)O[C@H]1CCC=C2C=C[C@H](C)[C@H](CC[C@@H]3C[C@@H](O)CC(=O)O3)[C@H]21` [Mevastatin] was run?
Its value is “strongly suppressed”.

`C[C@H](NC(=O)Cc1cc(F)cc(F)c1)C(=O)N[C@H]1N=C(c2ccccc2)c2ccccc2N(C)C1=O` [γ-Secretase Inhibitor XXI] was tested. Which “reduction in AUC” value did it give?
The value was “strongly suppressed”.

`O=C(Nc1cccc(NC(=O)c2cccc(O)c2O)c1)c1cccc(O)c1O` [Telomerase Inhibitor IX] was tested. Which “reduction in AUC” value did it give?
Its value is “strongly suppressed”.

With `C=CC(C)(C)c1cc(/C=C/C(=O)c2ccc(O)cc2)c(OC)cc1O` [Licochalcone-A] as the molecule, how does the “reduction in AUC” value read?
The value was “strongly suppressed”.

With `c1nc2nc(Nc3ccc(N4CCOCC4)cc3)nc(NC3CCCCC3)c2[nH]1` [Reversine] as the molecule, how does the “reduction in AUC” value read?
Its value is “strongly suppressed”.

For `Clc1ccccc1CNCC1CCC(CNCc2ccccc2Cl)CC1` (stereo not shown) [AY 9944], which “reduction in AUC” value is on record?
Its value is “strongly suppressed”.

With `CC#C[C@]1(O)CC[C@H]2[C@@H]3CCC4=CC(=O)CCC4=C3[C@@H](c3ccc(N(C)C)cc3)C[C@@]21C` [Mifepristone] as the molecule, how does the “reduction in AUC” value read?
The value was “strongly suppressed”.

Which “reduction in AUC” value does the source give for `N=C(N)SCCc1ccc(OCc2ccc([N+](=O)[O-])cc2)cc1` [KB-R7943] here?
The value was “strongly suppressed”.

`CCCC(=O)OCc1ccc(OC(=O)/C=C(C)/C=C/C=C(C)/C=C/C2=C(C)CCCC2(C)C)cc1` [ATRA-BA Hybrid] was tested. Which “reduction in AUC” value did it give?
Its value is “strongly suppressed”.

With `O=C(O)c1ccc2cc(-c3ccc(O)c(C45CC6CC(CC(C6)C4)C5)c3)ccc2c1` [CD437/AHPN] as the molecule, how does the “reduction in AUC” value read?
Its value is “strongly suppressed”.
